Reference: the NIST ThermoML archive (doi:10.1021/je060271a)

Details: 283.15 K, Liquid, Vibrating tube method

CCCCC(=O)OCC(COC(=O)CCCC)(COC(=O)CCCC)COC(=O)CCCC [pentaerythritol tetrapentanoate]
Details | mass density [kg/m3]
735.2 kPa | 1027.6
767.3 kPa | 1027.5
795.3 kPa | 1027.5
819.4 kPa | 1027.5
839.6 kPa | 1027.6
865.5 kPa | 1027.6
888.6 kPa | 1027.5
912.5 kPa | 1027.6
938.4 kPa | 1027.7
969.9 kPa | 1027.6
997.3 kPa | 1027.6
1027 kPa | 1027.7
1064.4 kPa | 1027.7
1096.7 kPa | 1027.7
1131.3 kPa | 1027.7
1175 kPa | 1027.7
1212.2 kPa | 1027.8
1243.1 kPa | 1027.7
1258.2 kPa | 1027.8
1275 kPa | 1027.8
1289.5 kPa | 1027.7
1304.2 kPa | 1027.8
1321.8 kPa | 1027.8
1336.7 kPa | 1027.8
1351.8 kPa | 1027.9
1371.1 kPa | 1027.9
1421.6 kPa | 1027.8
1442.1 kPa | 1027.9
1459.8 kPa | 1027.9
1477.5 kPa | 1027.9
1499.7 kPa | 1027.9
1518.7 kPa | 1027.9
1561.4 kPa | 1027.9
1627.3 kPa | 1028.1
1648.9 kPa | 1028.1
1671.6 kPa | 1028
1695.7 kPa | 1028
1719.2 kPa | 1028.1
1748.3 kPa | 1028.1
1772.8 kPa | 1028
1798.3 kPa | 1028
1824.2 kPa | 1028.1
1856.3 kPa | 1028.2
1883 kPa | 1028.2
1911.7 kPa | 1028.1
1940.6 kPa | 1028.2
1976.1 kPa | 1028.2
2006.6 kPa | 1028.2
2039.2 kPa | 1028.3
2073.9 kPa | 1028.3
2114 kPa | 1028.3
2165.9 kPa | 1028.3
2243 kPa | 1028.4
2290.5 kPa | 1028.4
2304.2 kPa | 1028.4
2315.5 kPa | 1028.5
2325.4 kPa | 1028.5
2335.1 kPa | 1028.5
2345 kPa | 1028.4
2356.8 kPa | 1028.4
2367 kPa | 1028.5
2376.9 kPa | 1028.5
2387.1 kPa | 1028.5
2399.6 kPa | 1028.4
2409.9 kPa | 1028.5
2419.9 kPa | 1028.6
2432.6 kPa | 1028.5
2443.2 kPa | 1028.4
2453.4 kPa | 1028.5
2464 kPa | 1028.6
2476.8 kPa | 1028.5
2487.6 kPa | 1028.7
2498.3 kPa | 1028.4
2511.9 kPa | 1028.5
2523 kPa | 1028.4
2534.1 kPa | 1028.6
2545.9 kPa | 1028.6
2559.4 kPa | 1028.6
2570.3 kPa | 1028.6
2581.9 kPa | 1028.6
